The source of these data is publication PMC6406325, “ATP- and Polyphosphate-Dependent Glucokinases from Aerobic Methanotrophs” (Microorganisms, 2019).

Holding throughout (type): biochemical, Methylomonas sp. 12
Data set [1] addresses T1, ATP-Glk (Methylomonas sp., UniProt A0A3G4RI75).
T1 construct: full-length, His6-tagged (N-terminal), pET30(a)+ in E. coli Rosetta (DE3), Ni-NTA; gene 990 bp; di- to hexamers
In words: effect on glucokinase activity with ATP and glucose. From the text: effect on glucokinase activity with ATP and glucose on ATP-Glk

Data set [2] concerns the target T2, polyP-Glk (Methylomonas sp., UniProt A0A3G4RHV5).
T2 construct: gene pglk; full-length, His6-tagged (N-terminal), E. coli Rosetta (DE3), Ni-NTA; gene 795 bp; dimer with polyP
In words: effect on glucokinase activity with polyP and glucose. The settings on record: polyP (n=45) and glucose as substrates; activator, not a phosphoryl donor; ATP concentration not printed in table (10 mM elsewhere in the source). The source says:
effect on glucokinase activity with polyP and glucose on polyP-Glk

For data set [3], the target named is T2, polyP-Glk. Description: glucose 6-phosphate dehydrogenase coupled NADP+ reduction at […] nm. The settings on record: saturating polyP (n=45); Mg2+; pH 8.5; 28 °C.
Data set [4] has as its target T1, ATP-Glk. Described as above. As to conditions: saturating ATP; Mg2+; pH 7.5; 30 °C.
Data set [5] concerns T3, Nc1ncnc2c1ncn2[C@@H]1O[C@H](COP(=O)(O)OP(=O)(O)OP(=O)(O)O)[C@@H](O)[C@H]1O.
T3 construct: full-length, His6-tagged (N-terminal), pET30(a)+ in E. coli Rosetta (DE3), Ni-NTA; gene 990 bp; di- to hexamers
Description: purified protein. As to conditions: saturating glucose, Mg2+, pH 7.5, 30 °C.

T1 sequence (A0A3G4RI75 1-329): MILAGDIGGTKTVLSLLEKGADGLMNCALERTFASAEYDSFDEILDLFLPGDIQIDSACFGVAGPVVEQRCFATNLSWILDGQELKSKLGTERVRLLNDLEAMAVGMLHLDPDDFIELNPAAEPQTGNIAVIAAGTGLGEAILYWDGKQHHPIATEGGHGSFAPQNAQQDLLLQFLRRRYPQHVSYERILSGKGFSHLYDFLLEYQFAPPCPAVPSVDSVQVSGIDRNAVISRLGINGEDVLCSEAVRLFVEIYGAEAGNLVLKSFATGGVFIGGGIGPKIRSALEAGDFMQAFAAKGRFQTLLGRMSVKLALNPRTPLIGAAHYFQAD
T2 sequence (A0A3G4RHV5 1-264): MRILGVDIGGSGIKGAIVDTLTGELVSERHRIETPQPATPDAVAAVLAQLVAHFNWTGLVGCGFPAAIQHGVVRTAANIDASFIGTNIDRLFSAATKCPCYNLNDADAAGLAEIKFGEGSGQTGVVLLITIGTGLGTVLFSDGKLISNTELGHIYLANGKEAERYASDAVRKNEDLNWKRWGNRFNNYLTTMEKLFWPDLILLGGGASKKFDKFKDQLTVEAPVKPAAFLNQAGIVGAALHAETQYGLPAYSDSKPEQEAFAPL

Take `Nc1ncnc2c1ncn2[C@@H]1O[C@H](COP(=O)(O)OP(=O)(O)O)[C@@H](O)[C@H]1O` [ADP]: the activity at 5000 µM on ATP-Glk [1] is 48.9%.

In the case of `Nc1ncnc2c1ncn2[C@@H]1O[C@H](COP(=O)(O)OP(=O)(O)OP(=O)(O)O)[C@@H](O)[C@H]1O` [ATP], the “PolyP-Glk **” value at polyP-Glk [2] came to 155.0%.

Turning to `OC[C@H]1OC(O)[C@H](O)[C@@H](O)[C@@H]1O` (stereo partly shown) [glucose], the Michaelis constant (Km) (commonly the substrate concentration at which the rate is half of its maximum) on polyP-Glk [3] worked out at 450 ± 120 µM; on ATP-Glk [4], 80 ± 7 µM.

As for ATP-Glk (Methylomonas methanica), in data set [5], the Km was 78 ± 5.6 µM; the kcat (in general, the maximal rate divided by the concentration of active sites) came to 0.126 s⁻¹; the kcat/Km (usually the second-order rate constant that governs catalysis at low substrate concentration) is 1610 M⁻¹ s⁻¹.
